Measurements reported in ChEMBL document CHEMBL4811320, “Design, synthesis and biological evaluation of 2-styryl-5-hydroxy-4-pyrone derivatives and analogues as multiple functional agents with the potential for the treatment of Alzheimer's disease” (Bioorg Med Chem, 2021).
Active and inactive are the calls of the source. No cut-off for these calls is given here.

Key:
[1] = target: T1, Amyloid-beta precursor protein (Homo sapiens, UniProt P05067); experiment: Inhibition of amyloid beta (1 to 42) (unknown origin) self-induced aggregation at 20 uM incubated for 24 hrs by Thioflavin T based fluorometric assay relative to control
[2] = Metal chelating activity assessed as compound-Fe3+ complex formation by UV-Vis spectroscopic analysis
[3] = target: T1, Amyloid-beta precursor protein; experiment: Inhibition of amyloid beta (1 to 42) (unknown origin) self-induced aggregation incubated for 24 hrs by Thioflavin T based fluorometric assay
[4] = Metal chelating activity assessed as compound-Cu2+ complex formation by UV-Vis spectroscopic analysis
[5] = Antioxidant activity assessed as trolox equivalent antioxidant capacity; format: functional
Histamine H3 receptor = Histamine H3 receptor (Homo sapiens, UniProt Q9Y5N1); experiment: Antagonist activity at human H3 receptor by TR-FRET assay; format: functional
[6] = Inhibition of copper-induced amyloid beta (1 to 42) (unknown origin) aggregation at 50 uM measured after 24 hrs by thioflavin T based fluorescence assay
[7] = Inhibition of copper-induced amyloid beta (1 to 42) (unknown origin) aggregation at 50 uM measured after 24 hrs by transmission electron microscopic analysis
[8] = Metal chelating activity assessed as formation of Cu2+-compound complex stoichiometry ratio of 2:1 in presence of CuCl2 by Job's plot analysis
[9] = Disaggregation of copper-induced amyloid beta (1 to 42) (unknown origin) preformed fibrils at 50 uM measured after 24 hrs by transmission electron microscopic analysis
[10] = target: T1, Amyloid-beta precursor protein; experiment: Disaggregation of self-induced amyloid beta (1 to 42) (unknown origin) preformed fibrils assessed as reduction in fluorescence intensity at 20 uM after 24 hrs by thioflavin-T fluorescence assay relative to control; design: scale not given: the % may be the effect or the level left
[11] = target: T1, Amyloid-beta precursor protein; experiment: Inhibition of amyloid beta (1 to 42) (unknown origin) self-induced aggregation at 20 uM incubated for 24 hrs by transmission electron microscopic analysis
[12] = target: T1, Amyloid-beta precursor protein; experiment: Disaggregation of self-induced amyloid beta (1 to 42) (unknown origin) preformed fibrils at 20 uM measured after 24 hrs by transmission electron microscopic analysis
[13] = Metal chelating activity assessed as mole fraction required to show 2:1 stoichiometry ratio for compound-Cu2+ complex formation in presence of CuCl2 by Job's plot analysis
[14] = Disaggregation of copper-induced amyloid beta (1 to 42) (unknown origin) preformed fibrils at 50 uM measured after 24 hrs by ThT fluorescence assay

T1 sequence (P05067 whole entry): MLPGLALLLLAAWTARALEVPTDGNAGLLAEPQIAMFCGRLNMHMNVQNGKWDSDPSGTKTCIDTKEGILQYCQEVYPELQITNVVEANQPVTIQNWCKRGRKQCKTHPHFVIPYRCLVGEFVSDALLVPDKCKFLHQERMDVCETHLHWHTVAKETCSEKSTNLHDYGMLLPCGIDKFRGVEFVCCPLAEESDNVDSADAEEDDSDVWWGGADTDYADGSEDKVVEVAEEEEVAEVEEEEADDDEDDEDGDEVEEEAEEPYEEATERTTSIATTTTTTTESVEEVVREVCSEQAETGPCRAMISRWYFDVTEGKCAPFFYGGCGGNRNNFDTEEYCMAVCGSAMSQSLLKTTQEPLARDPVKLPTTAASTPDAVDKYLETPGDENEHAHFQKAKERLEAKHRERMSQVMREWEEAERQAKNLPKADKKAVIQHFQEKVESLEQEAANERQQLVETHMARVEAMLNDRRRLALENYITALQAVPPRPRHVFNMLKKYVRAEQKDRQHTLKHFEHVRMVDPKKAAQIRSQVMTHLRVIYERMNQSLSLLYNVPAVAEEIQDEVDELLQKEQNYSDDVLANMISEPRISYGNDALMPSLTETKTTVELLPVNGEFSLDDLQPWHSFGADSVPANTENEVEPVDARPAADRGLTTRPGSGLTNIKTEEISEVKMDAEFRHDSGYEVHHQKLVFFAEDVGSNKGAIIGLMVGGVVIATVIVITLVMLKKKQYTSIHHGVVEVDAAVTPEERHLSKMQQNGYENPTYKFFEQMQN
Histamine H3 receptor, sequence (Q9Y5N1 whole entry): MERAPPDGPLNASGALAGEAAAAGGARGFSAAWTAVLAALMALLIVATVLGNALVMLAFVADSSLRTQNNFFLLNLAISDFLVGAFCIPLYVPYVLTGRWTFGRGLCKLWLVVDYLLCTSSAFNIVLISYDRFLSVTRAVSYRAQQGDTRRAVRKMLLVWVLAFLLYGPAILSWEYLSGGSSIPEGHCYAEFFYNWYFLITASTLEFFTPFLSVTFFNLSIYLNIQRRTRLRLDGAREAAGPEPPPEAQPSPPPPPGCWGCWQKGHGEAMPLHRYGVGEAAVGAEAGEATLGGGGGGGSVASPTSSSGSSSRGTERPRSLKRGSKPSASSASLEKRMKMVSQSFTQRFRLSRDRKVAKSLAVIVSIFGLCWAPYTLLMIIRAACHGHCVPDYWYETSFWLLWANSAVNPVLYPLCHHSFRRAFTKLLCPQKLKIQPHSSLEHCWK

Structure (SMILES) | inhibition [1] [%] | Activity [2] | IC50 [3] [nM] | Activity [4] | IC50 (Histamine H3 receptor) [nM] | Activity [5] | also measured
Cn1cc(O)c(=O)cc1/C=C/c1ccc(OCCCN2CCCC2)cc1 | 85.4 | Active | 3290 | Active | 3.37 | 1.28 | –
CCn1cc(O)c(=O)cc1/C=C/c1ccc(OCCCN2CCCC2)cc1 | 97.6 | Active | 2070 | Active | 2.18 | 1.43 | –
Cc1c(C)c2c(c(C)c1O)CCC(C)(C(=O)O)O2 (centres undefined) | – | – | – | – | – | 1 | –
CCN(CC)CCCC(C)Nc1ccnc2cc(Cl)ccc12 (centres undefined) | – | – | – | – | – | – | Activity [9]: Active; Activity [14]: Active
CN(C)CCCOc1ccc(/C=C/c2cc(=O)c(O)co2)cc1 | 76.7 | – | 4510 | – | 104 | 2.21 | –
CN1CCN(CCCOc2ccc(/C=C/c3cc(=O)c(O)co3)cc2)CC1 | 89.8 | – | 5540 | – | 178 | 4.05 | –
CN1CCN(CCCOc2ccc(/C=C/c3cc(=O)c(O)cn3C)cc2)CC1 | 75.7 | – | 6020 | – | 353 | 0.73 | –
O=c1cc(/C=C/c2ccc(O)cc2)occ1O | – | – | – | – | – | 2.03 | –
CN(C)CCCOc1ccc(/C=C/c2cc(=O)c(O)cn2C)cc1 | 70.4 | – | 6180 | – | 85.4 | 1.34 | –
CCN(CC)CCCOc1ccc(/C=C/c2cc(=O)c(O)co2)cc1 | 94.6 | Active | 3950 | Active | 16.9 | 5.08 | –
Cc1oc(/C=C/c2ccc(OCCCN3CCCC3)cc2)cc(=O)c1O | 74.7 | – | 7010 | – | 4.91 | 2.12 | –
Cn1cc(O)c(=O)cc1/C=C/c1ccc(OCCCN2CCOCC2)cc1 | 71.9 | – | 5320 | – | 30.1 | 1.35 | –
COc1cc(/C=C/C(=O)CC(=O)/C=C/c2ccc(O)c(OC)c2)ccc1O | – | – | – | – | – | 1.11 | –
CCN(CC)CCCOc1ccc(/C=C/c2cc(=O)c(O)cn2C)cc1 | 85 | Active | 5380 | Active | 7.06 | 1.43 | –
O=c1cc(/C=C/c2ccc(OCCCN3CCOCC3)cc2)occ1O | 93.3 | – | 4120 | – | 68.8 | 4.39 | –

Second part, led by results:

inhibition [1] [%] | Activity [2] | IC50 [3] [nM] | Activity [4] | IC50 (Histamine H3 receptor) [nM] | Structure (SMILES) | Activity [5] | also measured
87 | Active | 2570 | Active | 4.74 | Cn1cc(O)c(=O)cc1/C=C/c1ccc(OCCCN2CCCCC2)cc1 | 1.23 | –
86.8 | Active | 3050 | Active | 5.07 | CCn1cc(O)c(=O)cc1/C=C/c1ccc(OCCCN2CCCCC2)cc1 | 1.78 | –
91.4 | Active | 2240 | Active | 8.25 | O=c1cc(/C=C/c2ccc(OCCCN3CCCC3)cc2)occ1O | 4.97 | inhibition [6]: Active; inhibition [7]: Active; Activity [8]: Active; Activity [9]: Active; Activity [10]: 35.1%; inhibition [11]: Active; Activity [12]: Active; Activity (mole fraction) [13]: 0.671; Activity [14]: Active
90.8 | Active | 3260 | Active | 2.74 | O=c1cc(/C=C/c2ccc(OCCCN3CCCCC3)cc2)occ1O | 5.22 | inhibition [6]: Active; inhibition [7]: Active; Activity [8]: Active; Activity [9]: Active; Activity [10]: 29.4%; inhibition [11]: Active; Activity [12]: Active; Activity (mole fraction) [13]: 0.682; Activity [14]: Active
15.7 | – | – | – | 14.5 | Oc1cccc2ccc(/C=C/c3ccc(OCCCN4CCCCC4)cc3)nc12 | 0.96 | –
17.6 | – | – | – | 16 | Oc1cccc2ccc(/C=C/c3ccc(OCCCN4CCCC4)cc3)nc12 | 0.73 | –
74.8 | – | 6260 | – | 2.65 | Cc1oc(/C=C/c2ccc(OCCCN3CCCCC3)cc2)cc(=O)c1O | 1.74 | –
